Assays:
VRK1 = target: T1, VRK1 (Homo sapiens, UniProt Q99986); assay: kinome screen (33PanQinase); assay type: biochemical
T1 construct: purchased Reaction Biology Europe GmbH (formerly ProQinase)
T1 sequence (Q99986 1-396): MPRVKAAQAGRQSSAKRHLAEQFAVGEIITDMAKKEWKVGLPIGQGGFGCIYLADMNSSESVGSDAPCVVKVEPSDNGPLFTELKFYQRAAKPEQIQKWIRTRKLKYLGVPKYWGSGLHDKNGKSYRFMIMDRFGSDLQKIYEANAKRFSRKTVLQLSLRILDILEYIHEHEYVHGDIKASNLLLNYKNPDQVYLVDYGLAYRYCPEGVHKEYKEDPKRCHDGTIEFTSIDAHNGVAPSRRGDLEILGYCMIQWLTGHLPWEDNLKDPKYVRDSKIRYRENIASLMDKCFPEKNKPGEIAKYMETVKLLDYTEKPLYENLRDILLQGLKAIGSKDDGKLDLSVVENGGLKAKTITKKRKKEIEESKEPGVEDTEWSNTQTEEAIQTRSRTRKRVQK
Experimental: (§1) The Kinome Screening was performed by Reaction Biology Europe GmbH (http://reactionbiology.com; Freiburg i. Br., Germany).

ACVR1B = target: T2, ACVR1B (Homo sapiens, UniProt P36896); assay: kinome screen (33PanQinase); assay type: biochemical
T2 construct: purchased Reaction Biology Europe GmbH (formerly ProQinase)
T2 sequence (P36896 24-505): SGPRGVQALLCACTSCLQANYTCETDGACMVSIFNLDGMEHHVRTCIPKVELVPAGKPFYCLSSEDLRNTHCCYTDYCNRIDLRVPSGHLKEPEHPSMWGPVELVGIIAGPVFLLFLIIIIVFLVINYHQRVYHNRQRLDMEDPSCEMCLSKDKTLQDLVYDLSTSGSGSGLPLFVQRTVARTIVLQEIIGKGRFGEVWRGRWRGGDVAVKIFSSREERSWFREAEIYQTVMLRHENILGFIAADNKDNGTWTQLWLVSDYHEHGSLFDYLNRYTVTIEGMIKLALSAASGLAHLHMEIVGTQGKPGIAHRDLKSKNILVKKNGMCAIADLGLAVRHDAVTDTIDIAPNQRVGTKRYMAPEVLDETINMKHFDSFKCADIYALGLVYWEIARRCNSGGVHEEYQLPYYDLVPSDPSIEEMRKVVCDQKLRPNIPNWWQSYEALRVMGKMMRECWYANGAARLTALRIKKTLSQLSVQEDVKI
Experimental: as §1

FGFR4 = target: T3, FGFR4 (Homo sapiens, UniProt P22455); assay: kinome screen (33PanQinase); assay type: biochemical
T3 construct: purchased Reaction Biology Europe GmbH (formerly ProQinase)
Experimental: as §1

MST2 = target: T4, MST2 (Homo sapiens, UniProt Q13188); assay: kinome screen (33PanQinase); assay type: biochemical
T4 construct: purchased Reaction Biology Europe GmbH (formerly ProQinase)
T4 sequence (Q13188 1-491): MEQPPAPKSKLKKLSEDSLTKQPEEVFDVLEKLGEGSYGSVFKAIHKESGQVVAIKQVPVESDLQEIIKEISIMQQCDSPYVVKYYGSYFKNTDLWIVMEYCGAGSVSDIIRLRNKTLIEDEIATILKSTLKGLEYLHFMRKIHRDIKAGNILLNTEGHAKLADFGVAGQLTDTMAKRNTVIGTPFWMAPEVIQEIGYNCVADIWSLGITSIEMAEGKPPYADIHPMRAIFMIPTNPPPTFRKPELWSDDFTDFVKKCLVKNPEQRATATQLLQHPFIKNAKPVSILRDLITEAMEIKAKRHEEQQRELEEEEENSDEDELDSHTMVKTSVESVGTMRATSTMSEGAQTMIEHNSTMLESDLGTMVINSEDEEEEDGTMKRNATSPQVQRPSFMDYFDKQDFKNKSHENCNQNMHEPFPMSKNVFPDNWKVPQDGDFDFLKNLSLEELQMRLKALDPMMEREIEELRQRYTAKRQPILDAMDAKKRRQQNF
Experimental: as §1

EPHA5 = target: T5, EPHA5 (Homo sapiens, UniProt P54756); assay: kinome screen (33PanQinase); assay type: biochemical
T5 construct: purchased Reaction Biology Europe GmbH (formerly ProQinase)
Experimental: as §1

BMPR1B = target: T6, BMPR1B (Homo sapiens, UniProt O00238); assay: kinome screen (33PanQinase); assay type: biochemical
T6 construct: purchased Reaction Biology Europe GmbH (formerly ProQinase)
Experimental: as §1

ERK2 = target: T7, ERK2 (Homo sapiens, UniProt P28482); assay: kinome screen (33PanQinase); assay type: biochemical
T7 construct: purchased Reaction Biology Europe GmbH (formerly ProQinase)
Experimental: as §1

EPHA4 = target: T8, EPHA4 (Homo sapiens, UniProt P54764); assay: kinome screen (33PanQinase); assay type: biochemical
T8 construct: purchased Reaction Biology Europe GmbH (formerly ProQinase)
Experimental: as §1

FYN = target: T9, FYN (Homo sapiens, UniProt P06241); assay: kinome screen (33PanQinase); assay type: biochemical
T9 construct: purchased Reaction Biology Europe GmbH (formerly ProQinase)
Experimental: as §1

SNK = target: T10, SNK (Homo sapiens, UniProt Q9NYY3); assay: kinome screen (33PanQinase); assay type: biochemical
T10 construct: purchased Reaction Biology Europe GmbH (formerly ProQinase)
Experimental: as §1

KIT = target: T11, KIT (Homo sapiens, UniProt P10721); assay: kinome screen (33PanQinase); assay type: biochemical
T11 construct: purchased Reaction Biology Europe GmbH (formerly ProQinase)
Experimental: as §1

ERBB2 = target: T12, ERBB2 (Homo sapiens, UniProt P04626); assay: kinome screen (33PanQinase); assay type: biochemical
T12 construct: purchased Reaction Biology Europe GmbH (formerly ProQinase)
Experimental: as §1

[1] = system: RNA polymerase II phosphorylation at Ser2; assay: immunoblotting of p-Ser2 RNA polymerase II in Ramos cells; assay type: cell-based, human; conditions: 0.1 and 1 µM (R547 1 µM), 4-24 h
Experimental: Cells were seeded at a density of 2 × 10^6 cells, treated as specified and harvested by centrifugation at 3000 rpm for 5 min, followed by freezing in liquid nitrogen. The cell pellets were thawed on ice and quick-frozen and defrozen in liquid nitrogen for three times, then lysed on ice in lysis buffer (20 mM Tris-HCl, 150 mM NaCl, 1% v/v Triton X-100, 0.5 mM EDTA, 10 mM NaF, 2.5 mM Na4P2O7, protease inhibitor (Sigma, #P2714)) for 30 min, accompanied by vortexing. Subsequently, centrifugation 13,300 rpm for 15 min purified cell lysates from cell debris. The supernatant was transferred to a new tube and the protein concentration was determined by Bradford assay. The samples were diluted with sample buffer. SDS-Page and Western Blot were conducted in accordance with standard workflows. […] The antibody baths were stored at 4 °C and re-used.
The density of the individual protein band was determined using Image Studio^TM Lite Version 5.2. The density of each protein was divided by the average of all bands of this protein. The ratios of the protein of interest were normalized to the ratio of the respective loading control. To determine the fold change, each normalized ratio was divided by the normalized band of the control line (untreated cells). Fold change is 1 for the control line, n ≥ 2. The results are shown as mean ± standard deviation and were visualized with GraphPad Prism 7.

T10 sequence (Q9NYY3 whole entry): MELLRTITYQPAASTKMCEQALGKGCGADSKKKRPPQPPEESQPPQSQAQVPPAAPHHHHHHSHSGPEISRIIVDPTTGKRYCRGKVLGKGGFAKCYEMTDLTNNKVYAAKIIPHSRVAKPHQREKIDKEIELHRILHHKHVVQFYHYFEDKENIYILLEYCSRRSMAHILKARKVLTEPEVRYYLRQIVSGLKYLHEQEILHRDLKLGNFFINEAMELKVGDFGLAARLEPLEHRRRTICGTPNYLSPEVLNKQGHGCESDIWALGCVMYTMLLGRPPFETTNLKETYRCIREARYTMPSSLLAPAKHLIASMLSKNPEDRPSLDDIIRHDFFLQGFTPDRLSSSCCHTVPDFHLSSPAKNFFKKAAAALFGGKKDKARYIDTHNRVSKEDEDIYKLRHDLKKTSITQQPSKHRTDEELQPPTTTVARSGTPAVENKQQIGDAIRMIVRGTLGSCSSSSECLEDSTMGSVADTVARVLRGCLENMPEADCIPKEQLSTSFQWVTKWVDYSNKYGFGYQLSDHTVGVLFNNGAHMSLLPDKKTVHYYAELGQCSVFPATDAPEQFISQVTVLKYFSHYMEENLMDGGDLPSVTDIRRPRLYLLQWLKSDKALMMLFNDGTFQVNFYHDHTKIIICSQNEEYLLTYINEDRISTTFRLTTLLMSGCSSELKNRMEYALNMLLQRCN
T11 sequence (P10721 26-976): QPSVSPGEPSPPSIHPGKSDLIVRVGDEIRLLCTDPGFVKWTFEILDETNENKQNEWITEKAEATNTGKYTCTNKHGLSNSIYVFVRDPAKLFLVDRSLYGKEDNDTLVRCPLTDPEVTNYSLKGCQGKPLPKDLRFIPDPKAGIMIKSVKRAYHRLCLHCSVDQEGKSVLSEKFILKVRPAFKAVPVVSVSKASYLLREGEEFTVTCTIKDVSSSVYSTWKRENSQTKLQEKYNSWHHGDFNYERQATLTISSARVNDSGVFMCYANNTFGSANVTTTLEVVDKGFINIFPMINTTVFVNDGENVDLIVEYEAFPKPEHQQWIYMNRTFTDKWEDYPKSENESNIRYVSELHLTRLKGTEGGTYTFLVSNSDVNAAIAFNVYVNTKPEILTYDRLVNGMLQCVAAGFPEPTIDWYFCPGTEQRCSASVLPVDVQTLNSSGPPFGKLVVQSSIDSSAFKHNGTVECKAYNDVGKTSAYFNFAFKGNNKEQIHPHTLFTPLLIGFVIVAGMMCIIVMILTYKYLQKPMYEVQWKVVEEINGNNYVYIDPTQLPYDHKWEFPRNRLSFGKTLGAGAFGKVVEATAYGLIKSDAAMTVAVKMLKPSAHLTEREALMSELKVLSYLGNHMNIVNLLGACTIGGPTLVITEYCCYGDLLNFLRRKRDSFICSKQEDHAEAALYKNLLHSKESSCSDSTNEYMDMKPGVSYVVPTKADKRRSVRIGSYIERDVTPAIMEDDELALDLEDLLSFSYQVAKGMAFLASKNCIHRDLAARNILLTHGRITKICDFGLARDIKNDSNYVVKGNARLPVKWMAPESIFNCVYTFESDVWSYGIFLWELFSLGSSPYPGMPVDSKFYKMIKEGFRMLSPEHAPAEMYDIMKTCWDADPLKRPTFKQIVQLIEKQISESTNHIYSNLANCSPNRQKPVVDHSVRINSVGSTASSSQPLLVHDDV
T12 sequence (P04626 23-1255): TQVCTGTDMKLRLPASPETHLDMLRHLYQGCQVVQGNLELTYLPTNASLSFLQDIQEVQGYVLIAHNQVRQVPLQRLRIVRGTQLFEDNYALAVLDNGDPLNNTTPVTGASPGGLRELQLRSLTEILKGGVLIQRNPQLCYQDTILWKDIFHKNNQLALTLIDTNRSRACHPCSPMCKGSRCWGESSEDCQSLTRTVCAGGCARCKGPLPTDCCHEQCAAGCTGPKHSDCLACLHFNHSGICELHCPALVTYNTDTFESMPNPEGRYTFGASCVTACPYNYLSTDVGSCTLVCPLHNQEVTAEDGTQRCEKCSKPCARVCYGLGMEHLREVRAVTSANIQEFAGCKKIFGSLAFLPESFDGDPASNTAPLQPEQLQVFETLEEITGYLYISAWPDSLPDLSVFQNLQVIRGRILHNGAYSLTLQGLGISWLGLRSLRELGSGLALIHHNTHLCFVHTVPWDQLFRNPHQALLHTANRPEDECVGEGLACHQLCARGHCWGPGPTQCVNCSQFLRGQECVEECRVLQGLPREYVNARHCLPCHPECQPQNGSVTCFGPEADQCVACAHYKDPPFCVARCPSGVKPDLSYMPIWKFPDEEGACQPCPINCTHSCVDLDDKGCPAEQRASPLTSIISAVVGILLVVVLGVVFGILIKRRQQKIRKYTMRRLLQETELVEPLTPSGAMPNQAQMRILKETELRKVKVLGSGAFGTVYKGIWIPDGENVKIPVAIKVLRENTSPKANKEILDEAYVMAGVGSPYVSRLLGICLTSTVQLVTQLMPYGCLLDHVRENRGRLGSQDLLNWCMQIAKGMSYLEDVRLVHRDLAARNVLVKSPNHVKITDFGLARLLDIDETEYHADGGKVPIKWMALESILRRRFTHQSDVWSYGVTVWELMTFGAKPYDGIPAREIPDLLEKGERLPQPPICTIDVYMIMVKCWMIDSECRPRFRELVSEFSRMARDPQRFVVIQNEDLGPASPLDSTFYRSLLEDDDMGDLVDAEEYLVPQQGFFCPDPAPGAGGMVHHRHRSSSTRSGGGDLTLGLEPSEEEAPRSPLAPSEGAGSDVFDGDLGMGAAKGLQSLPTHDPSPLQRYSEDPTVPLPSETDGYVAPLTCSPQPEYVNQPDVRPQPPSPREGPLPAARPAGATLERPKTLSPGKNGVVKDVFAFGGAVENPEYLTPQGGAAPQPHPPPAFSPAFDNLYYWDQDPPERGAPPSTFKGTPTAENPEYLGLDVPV
T3 sequence (P22455 22-802): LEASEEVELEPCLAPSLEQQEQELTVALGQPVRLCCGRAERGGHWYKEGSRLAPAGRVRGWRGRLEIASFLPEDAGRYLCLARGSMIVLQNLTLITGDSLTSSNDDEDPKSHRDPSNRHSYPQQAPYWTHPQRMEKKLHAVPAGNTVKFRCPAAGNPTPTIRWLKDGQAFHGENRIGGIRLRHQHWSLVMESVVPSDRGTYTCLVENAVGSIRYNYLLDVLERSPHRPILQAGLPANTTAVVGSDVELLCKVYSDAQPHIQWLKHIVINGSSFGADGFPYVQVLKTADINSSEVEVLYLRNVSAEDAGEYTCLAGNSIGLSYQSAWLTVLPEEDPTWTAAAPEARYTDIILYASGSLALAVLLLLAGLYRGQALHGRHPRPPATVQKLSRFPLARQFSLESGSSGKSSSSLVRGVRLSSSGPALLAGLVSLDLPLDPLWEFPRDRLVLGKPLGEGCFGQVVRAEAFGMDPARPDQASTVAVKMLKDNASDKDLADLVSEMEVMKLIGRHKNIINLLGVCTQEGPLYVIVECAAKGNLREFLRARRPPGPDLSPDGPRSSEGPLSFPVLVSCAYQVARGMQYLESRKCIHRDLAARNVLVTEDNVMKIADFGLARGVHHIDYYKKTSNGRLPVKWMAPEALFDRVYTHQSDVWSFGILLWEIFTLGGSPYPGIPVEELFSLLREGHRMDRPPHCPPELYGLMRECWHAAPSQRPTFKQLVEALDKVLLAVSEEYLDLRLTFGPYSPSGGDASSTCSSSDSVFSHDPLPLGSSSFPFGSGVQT
T8 sequence (P54764 20-986): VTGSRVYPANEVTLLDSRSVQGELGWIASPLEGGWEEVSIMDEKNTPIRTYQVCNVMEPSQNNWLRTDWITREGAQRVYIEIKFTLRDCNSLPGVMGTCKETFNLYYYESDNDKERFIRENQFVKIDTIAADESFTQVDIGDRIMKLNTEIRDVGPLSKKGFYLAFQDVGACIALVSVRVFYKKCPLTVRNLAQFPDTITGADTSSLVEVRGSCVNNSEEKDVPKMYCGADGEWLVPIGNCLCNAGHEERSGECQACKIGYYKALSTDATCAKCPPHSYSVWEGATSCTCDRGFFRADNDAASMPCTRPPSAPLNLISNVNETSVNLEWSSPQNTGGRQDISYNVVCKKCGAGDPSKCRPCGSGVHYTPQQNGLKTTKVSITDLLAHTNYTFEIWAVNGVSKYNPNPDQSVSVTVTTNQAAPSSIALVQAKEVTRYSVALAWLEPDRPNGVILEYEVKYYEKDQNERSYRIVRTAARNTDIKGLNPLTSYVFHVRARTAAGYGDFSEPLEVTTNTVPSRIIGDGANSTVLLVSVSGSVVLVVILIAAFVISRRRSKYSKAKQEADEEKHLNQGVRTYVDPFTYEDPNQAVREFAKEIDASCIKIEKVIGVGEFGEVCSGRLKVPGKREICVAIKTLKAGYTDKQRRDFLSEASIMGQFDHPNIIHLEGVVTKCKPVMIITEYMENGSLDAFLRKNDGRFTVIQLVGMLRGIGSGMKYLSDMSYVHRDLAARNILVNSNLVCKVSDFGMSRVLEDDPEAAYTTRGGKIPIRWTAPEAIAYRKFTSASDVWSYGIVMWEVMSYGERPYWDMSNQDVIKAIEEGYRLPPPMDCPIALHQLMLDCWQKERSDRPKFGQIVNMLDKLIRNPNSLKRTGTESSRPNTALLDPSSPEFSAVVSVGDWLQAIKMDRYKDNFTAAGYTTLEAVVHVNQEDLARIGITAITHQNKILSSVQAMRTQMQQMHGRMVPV
T7 sequence (P28482 whole entry): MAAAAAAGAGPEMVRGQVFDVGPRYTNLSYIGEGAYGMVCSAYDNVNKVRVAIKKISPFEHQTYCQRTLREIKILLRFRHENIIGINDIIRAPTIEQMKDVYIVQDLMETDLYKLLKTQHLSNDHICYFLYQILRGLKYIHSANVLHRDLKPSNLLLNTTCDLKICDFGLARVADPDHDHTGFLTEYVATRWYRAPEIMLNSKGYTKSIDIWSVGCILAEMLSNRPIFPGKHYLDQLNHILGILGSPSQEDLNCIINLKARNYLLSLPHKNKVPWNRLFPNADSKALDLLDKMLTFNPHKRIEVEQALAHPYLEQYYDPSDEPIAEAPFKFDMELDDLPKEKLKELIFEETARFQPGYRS

Compound	residual kinase activity (VRK1; 0.3 µM)	residual kinase activity (ACVR1B; 0.3 µM)	residual kinase activity (FGFR4; 0.3 µM)	residual kinase activity (MST2; 0.3 µM)	residual kinase activity (EPHA5; 0.3 µM)	residual kinase activity (BMPR1B; 0.3 µM)	residual kinase activity (ERK2; 0.3 µM)	residual kinase activity (EPHA4; 0.3 µM)	residual kinase activity (FYN; 0.3 µM)	residual kinase activity (SNK; 0.3 µM)	residual kinase activity (KIT; 0.3 µM)	residual kinase activity (ERBB2; 0.3 µM)	phosphorylation of RNA polymerase II at Ser2 [1]	further results
COc1ccnc2[nH]cc(-c3cc(N)nc(N)c3)c12 [meriolin 16]	108 % of control	69 % of control	87 % of control	77 % of control	102 % of control	91 % of control	87 % of control	85 % of control	69 % of control	98 % of control	96 % of control	102 % of control	total loss of the phosphorylation at Ser2 within 4 h	residual kinase activity (VRK1; 0.03 µM): 114 % of control; residual kinase activity (ACVR1B; 0.03 µM): 75 % of control; residual kinase activity (FGFR4; 0.03 µM): 91 % of control; residual kinase activity (MST2; 0.03 µM): 100 % of control; residual kinase activity (EPHA5; 0.03 µM): 115 % of control; residual kinase activity (BMPR1B; 0.03 µM): 91 % of control; residual kinase activity (ERK2; 0.03 µM): 103 % of control; residual kinase activity (EPHA4; 0.03 µM): 105 % of control; residual kinase activity (FYN; 0.03 µM): 93 % of control; residual kinase activity (SNK; 0.03 µM): 96 % of control; residual kinase activity (KIT; 0.03 µM): 70 % of control; residual kinase activity (ERBB2; 0.03 µM): 102 % of control
c1ccc(CNc2cc(-c3c[nH]c4ncccc34)ccn2)cc1 [meriolin 36]	104 % of control	43 % of control	98 % of control	19 % of control	146 % of control	75 % of control	79 % of control	93 % of control	22 % of control	94 % of control	89 % of control	90 % of control	less pronounced	residual kinase activity (VRK1; 3 µM): 61 % of control; residual kinase activity (ACVR1B; 3 µM): 10 % of control; residual kinase activity (FGFR4; 3 µM): 58 % of control; residual kinase activity (MST2; 3 µM): 4 % of control; residual kinase activity (EPHA5; 3 µM): 84 % of control; residual kinase activity (BMPR1B; 3 µM): 45 % of control; residual kinase activity (ERK2; 3 µM): 30 % of control; residual kinase activity (EPHA4; 3 µM): 72 % of control; residual kinase activity (FYN; 3 µM): 3 % of control; residual kinase activity (SNK; 3 µM): 43 % of control; residual kinase activity (KIT; 3 µM): 46 % of control; residual kinase activity (ERBB2; 3 µM): 44 % of control
